# Values quoted from earlier work in PubChem BioAssay AID1259409 (Chemical Carcinogenesis Research Information System (CCRIS), 2018).
# Several values for one entry are separate records, joined by “and”; a condition that tells them apart may be missing. Equal entries are not always repeated.
# Tested on: rodent chemically induced tumor inhibition, incidence and multiplicity
# Assay: CCRIS tumor inhibitor studies
compound,measurement,setting,value
COc1cc(/C=C/C(=O)O)ccc1O,"tumour outcome (control, treated, inhibition, significance)","Carcinogen: 4-NITROQUINOLINE-1-OXIDE [56-57-5], Dose [Inhibitor]: 500 PPM IN DIET FOR 7 WK BEGINNING 1 WK PRIOR TO FIRST CARCINOGEN DOSE (STUDY DURATION: 32 WK), Route [Inhibitor]: ORAL, Species: RAT, Strain/Sex: F344/MALE, Target Tissue: Type of Lesion: TONGUE: PAPILLOMA OR CARCINOMA, Dose [Carcinogen]: 20 PPM IN DRINKING WATER FOR 5 WK (STUDY DURATION: 32 WK), Promoter: NONE","9/15 (60%), 3/14 (21%), 65%, p<0.05"
same,"tumour outcome (control, treated, inhibition, significance)","Carcinogen: 4-NITROQUINOLINE-1-OXIDE, 56-57-5, Dose [Inhibitor]: 0, 500 PPM IN DIET FOR 7 WK BEGINNING 1 WK PRIOR TO START OF CARCINOGEN TREATMENT (STUDY DURATION: 32 WK), Route [Inhibitor]: ORAL, Species: RAT, Strain/Sex: F344/MALE, Target Tissue: Type of Lesion: TONGUE: PAPILLOMA, Dose [Carcinogen]: 20 PPM IN DRINKING WATER FOR 5 WK, Promoter: NONE USED","1/15 (7%), 2/14 (14%), -100%, not significant"
same,"tumour outcome (control, treated, inhibition, significance)","Carcinogen: 7,12-DIMETHYLBENZ[A]ANTHRACENE, 57-97-6, Dose [Inhibitor]: 0, 5 MG IN 200 µL ACETONE 2/WK BEGINNING 10 D POST CARCINOGEN DOSE APPLIED 30-40 MIN PRIOR TO EACH PROMOTER DOSE (STUDY, Route [Inhibitor]: DERMAL, Species: MOUSE, Strain/Sex: ICR/FEMALE, Target Tissue: Type of Lesion: SKIN: PAPILLOMA, Dose [Carcinogen]: 200 NMOL IN 200 µL ACETONE ONCE, Promoter: 12-O-TETRADECANOYLPHORBOL-13-ACETATE, 16561-29-8","100%, 94%, 6%, not significant and 100%, 65%, 35%, not calculated"
same,"tumour outcome (control, treated, inhibition, significance)","Carcinogen: 7,12-DIMETHYLBENZ[A]ANTHRACENE, 57-97-6, Dose [Inhibitor]: 10 UMOL IN 200 µL ACETONE/DMSO (90:10) 2/WK FOR 19 WK BEGINNING 1 WK POST CARCINOGEN DOSE (STUDY DURATION: 20 WK), Route [Inhibitor]: DERMAL, Species: MOUSE, Strain/Sex: CD-1/FEMALE, Target Tissue: Type of Lesion: SKIN: PAPILLOMA, Dose [Carcinogen]: 200 NMOL IN 200 µL ACETONE ONCE, Promoter: 12-O-TETRADECANOYLPHORBOL-13-ACETATE, 16561-29-8","68%, 64%, 6%, not calculated"
same,"tumour outcome (control, treated, inhibition, significance)","Carcinogen: 7,12-DIMETHYLBENZ[A]ANTHRACENE, 57-97-6, Dose [Inhibitor]: 50 UMOL IN 200 µL ACETONE/DMSO (90:10) 2/WK FOR 19 WK BEGINNING 1 WK POST CARCINOGEN DOSE (STUDY DURATION: 20 WK), Route [Inhibitor]: DERMAL, Species: MOUSE, Strain/Sex: CD-1/FEMALE, Target Tissue: Type of Lesion: SKIN: PAPILLOMA, Dose [Carcinogen]: 200 NMOL IN 200 µL ACETONE ONCE, Promoter: 12-O-TETRADECANOYLPHORBOL-13-ACETATE, 16561-29-8","68%, 13%, 81%, not calculated"
same,"tumour outcome (control, treated, inhibition, significance)","Carcinogen: AZOXYMETHANE [25843-45-2], Dose [Inhibitor]: 0, 250 PPM IN DIET FOR 12 WK (STUDY DURATION: 35 WK), Route [Inhibitor]: ORAL, Species: RAT, Strain/Sex: F344/MALE, Target Tissue: Type of Lesion: INTESTINE: TUMOR, Dose [Carcinogen]: 15 MG/KG 3X/WK FOR 12 WK (STUDY DURATION: 35 WK), Promoter: NONE","64%, 32%, 50%, p<0.05"
same,"tumour outcome (control, treated, inhibition, significance)","Carcinogen: AZOXYMETHANE [25843-45-2], Dose [Inhibitor]: 0, 250 PPM IN DIET FOR 12 WK (STUDY DURATION: 35 WK), Route [Inhibitor]: ORAL, Species: RAT, Strain/Sex: F344/MALE, Target Tissue: Type of Lesion: SMALL INTESTINE: TUMOR, Dose [Carcinogen]: 15 MG/KG 3X/WK FOR 12 WK (STUDY DURATION: 35 WK), Promoter: NONE","18%, 5%, 72%, not significant"
same,"tumour outcome (control, treated, inhibition, significance)","Carcinogen: AZOXYMETHANE [25843-45-2], Dose [Inhibitor]: 0, 250 PPM IN DIET FOR 23 WK BEGINNING POST LAST CARCINOGEN DOSE (STUDY DURATION: 35 WK), Route [Inhibitor]: ORAL, Species: RAT, Strain/Sex: F344/MALE, Target Tissue: Type of Lesion: INTESTINE: TUMOR, Dose [Carcinogen]: 15 MG/KG 3X/WK FOR 12 WK (STUDY DURATION: 35 WK), Promoter: NONE","64%, 41%, 36%, p<0.05"
same,"tumour outcome (control, treated, inhibition, significance)","Carcinogen: AZOXYMETHANE [25843-45-2], Dose [Inhibitor]: 0, 250 PPM IN DIET FOR 23 WK BEGINNING POST LAST CARCINOGEN DOSE (STUDY DURATION: 35 WK), Route [Inhibitor]: ORAL, Species: RAT, Strain/Sex: F344/MALE, Target Tissue: Type of Lesion: LARGE INTESTINE: TUMOR, Dose [Carcinogen]: 15 MG/KG 3X/WK FOR 12 WK (STUDY DURATION: 35 WK), Promoter: NONE","11%, 36%, -227%, not significant"
same,"tumour outcome (control, treated, inhibition, significance)","Carcinogen: AZOXYMETHANE [25843-45-2], Dose [Inhibitor]: 0, 250 PPM IN DIET FOR 23 WK BEGINNING POST LAST CARCINOGEN DOSE (STUDY DURATION: 35 WK), Route [Inhibitor]: ORAL, Species: RAT, Strain/Sex: F344/MALE, Target Tissue: Type of Lesion: SMALL INTESTINE: TUMOR, Dose [Carcinogen]: 15 MG/KG 3X/WK FOR 12 WK (STUDY DURATION: 35 WK), Promoter: NONE","18%, 18%, 0%, not significant"
same,"tumour outcome (control, treated, inhibition, significance)","Carcinogen: AZOXYMETHANE [25843-45-2], Dose [Inhibitor]: 0, 500 PPM IN DIET FOR 12 WK (STUDY DURATION: 35 WK), Route [Inhibitor]: ORAL, Species: RAT, Strain/Sex: F344/MALE, Target Tissue: Type of Lesion: INTESTINE: TUMOR, Dose [Carcinogen]: 15 MG/KG 3X/WK FOR 12 WK (STUDY DURATION: 35 WK), Promoter: NONE","64%, 32%, 50%, p<0.05"
same,"tumour outcome (control, treated, inhibition, significance)","Carcinogen: AZOXYMETHANE [25843-45-2], Dose [Inhibitor]: 0, 500 PPM IN DIET FOR 12 WK (STUDY DURATION: 35 WK), Route [Inhibitor]: ORAL, Species: RAT, Strain/Sex: F344/MALE, Target Tissue: Type of Lesion: LARGE INTESTINE: TUMOR, Dose [Carcinogen]: 15 MG/KG 3X/WK FOR 12 WK (STUDY DURATION: 35 WK), Promoter: NONE","11%, 27%, -146%, not significant"
same,"tumour outcome (control, treated, inhibition, significance)","Carcinogen: AZOXYMETHANE [25843-45-2], Dose [Inhibitor]: 0, 500 PPM IN DIET FOR 12 WK (STUDY DURATION: 35 WK), Route [Inhibitor]: ORAL, Species: RAT, Strain/Sex: F344/MALE, Target Tissue: Type of Lesion: SMALL INTESTINE: TUMOR, Dose [Carcinogen]: 15 MG/KG 3X/WK FOR 12 WK (STUDY DURATION: 35 WK), Promoter: NONE","18%, 5%, 72%, not significant"
same,"tumour outcome (control, treated, inhibition, significance)","Carcinogen: AZOXYMETHANE [25843-45-2], Dose [Inhibitor]: 0, 500 PPM IN DIET FOR 23 WK BEGINNING POST LAST CARCINOGEN DOSE (STUDY DURATION: 35 WK), Route [Inhibitor]: ORAL, Species: RAT, Strain/Sex: F344/MALE, Target Tissue: Type of Lesion: INTESTINE: TUMOR, Dose [Carcinogen]: 15 MG/KG 3X/WK FOR 12 WK (STUDY DURATION: 35 WK), Promoter: NONE","64%, 41%, 36%, not significant"
